Data from US10919916B2, “Boron-containing small molecules” (Bill & Melinda Gates Foundation, priority 2016, dated 2021).
Converted amounts (≈) assume the structure as drawn. Where two headings read alike, the source gives them in different places.

Assays:
Format in all cases: cell-based
[1] = system: Staphylococcus aureus, MRSA (ATCC 33591); assay: Antibacterial MIC assay (microbroth dilution, CLSI); details: read-out: MIC Staphylococcus aureus, MRSA (ATCC 33591)
In short: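 Compound 2-fold dilution series tested against 5×10^5 CFU/mL bacteria prepared from 0.5 McFarland saline suspensions of overnight colonies. Medium was cation-adjusted Mueller-Hinton broth, supplemented with 3% lysed horse blood for the fastidious pneumococcus. Protocol followed CLSI M07-A10 and M100-S25.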

[2] = system: Streptococcus pneumoniae (ATCC 49619); assay: as above
In short: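 S. pneumoniae at 5×10^5 CFU/mL (from 0.5 McFarland saline suspension) was tested against 2-fold serial compound dilutions in cation-adjusted Mueller-Hinton broth plus 3% lysed horse blood, per CLSI M07-A10/M100-S25 microdilution guidelines.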

[3] = system: Wolbachia pipientis in C6/36 cell line; assay: Anti-Wolbachia high-content assay; details: read-out: EC50 Wolbachia pipientis in C6/36 cell line
Protocol: After 15 minutes, all media was removed from each well and fresh media (no stain) was added. Imaging of each well was accomplished using a Perkin Elmer Operetta high-content imaging system. Five fields per well were imaged using a confocal 60× objective with the Fluorescein filter (excitation filter: 460-490 nm; emission filter: 500-550 nm). Images were analyzed using the Perkin Elmer Harmony software to score each intact cell on the basis of texture complexity of the cytoplasm. Full details can be found in: […]. et al, J. Biomol.

[4] = microbroth dilution, cation-adjusted Mueller-Hinton broth, 35° C. for 16-20 hours
[5] = ATCC49619, microbroth dilution, 3% lysed horse blood, 35° C. for 16-20 hours, read-out: MIC Streptococcus pneumoniae (ATCC 49619)
[6] = C6/36 (wAlbB) cells, 7 days at 26° C., 50% reduction of Wolbachia

SMILES | MIC [1, 4] | MIC [2, 5] | EC50 [3, 6] | MIC [1] | MIC ([2]; ATCC49619, read-out: MIC Streptococcus pneumoniae (ATCC 49619)) | EC50 ([3]; C6/36, […])
C=C[C@]1(C)C[C@@H](OC(=O)COc2cc(CNC(=O)OC(C)(C)C)c3c(c2Cl)B(O)OC3)[C@]2(C)[C@H](C)CC[C@]3(CCC(=O)[C@H]32)[C@@H](C)[C@@H]1O [Compound 7, (3aR,4R,5R,7S,8S,9R,9aS,12R)-8-hydroxy-4,7,9,12-tetramethyl-3-oxo-7-vinyldecahydro-4,9a-propanocyclopenta[8]annulen-5-yl 2-((4-(((tert-butoxycarbonyl)amino)methyl)-7-chloro-1-hydroxy-1,3-dihydrobenzo[c][1,2]oxaborol-6-yl)oxy)acetate] |  |  |  | 0.5 to 2 µg/mL (≈ 0.742 to 2.97 µM) | 4 to 32 µg/mL (≈ 5.93 to 47.5 µM) | 428 nM
C=C[C@]1(C)C[C@@H](OC(=O)COc2ccc3c(c2)B(O)OC3CNS(C)(=O)=O)[C@]2(C)[C@H](C)CC[C@]3(CCC(=O)[C@H]32)[C@@H](C)[C@@H]1O (stereo partly drawn) [Compound 23, (3aR,4R,5R,7S,8S,9R,9aS,12R)-8-hydroxy-4,7,9,12-tetramethyl-3-oxo-7-vinyldecahydro-4,9a-propanocyclopenta[8]annulen-5-yl 2-((1-hydroxy-3-(methylsulfonamidomethyl)-1,3-dihydrobenzo[c][1,2]oxaborol-6-yl)oxy)acetate] | 0.5 to 2 µg/mL (≈ 0.81 to 3.24 µM) | 0.5 to 2 µg/mL (≈ 0.81 to 3.24 µM) | 613 nM |  |  | 
C=C[C@]1(C)C[C@@H](OC(=O)COc2ccc3c(c2)B(O)OC3CC(=O)O)[C@]2(C)[C@H](C)CC[C@]3(CCC(=O)[C@H]32)[C@@H](C)[C@@H]1O (stereo partly drawn) [Compound 25, 2-(1-hydroxy-6-(2-(((3aR,4R,5R,7S,8S,9R,9aS,12R)-8-hydroxy-4,7,9,12-tetramethyl-3-oxo-7-vinyldecahydro-4,9a-propanocyclopenta[8]annulen-5-yl)oxy)-2-oxoethoxy)-1,3-dihydrobenzo[c][1,2]oxaborol-3-yl)acetic acid] | 0.5 to 2 µg/mL (≈ 0.88 to 3.52 µM) | 0.5 to 2 µg/mL (≈ 0.88 to 3.52 µM) | > 1000 nM |  |  | 
C=C[C@]1(C)C[C@@H](OC(=O)COc2ccc3c(c2F)B(O)OC3CNC(=O)OC(C)(C)C)[C@]2(C)[C@H](C)CC[C@]3(CCC(=O)[C@H]32)[C@@H](C)[C@@H]1O (stereo partly drawn) [Compound 28, (3aR,4R,5R,7S,8S,9R,9aS,12R)-8-hydroxy-4,7,9,12-tetramethyl-3-oxo-7-vinyldecahydro-4,9a-propanocyclopenta[8]annulen-5-yl 2-((3-(((tert-butoxycarbonyl)amino)methyl)-7-fluoro-1-hydroxy-1,3-dihydrobenzo[c][1,2]oxaborol-6-yl)oxy)acetate] | 0.5 to 2 µg/mL (≈ 0.76 to 3.04 µM) | 0.5 to 2 µg/mL (≈ 0.76 to 3.04 µM) | > 1000 nM |  |  | 
C=C[C@]1(C)C[C@@H](OC(=O)COc2cc3c(cn2)COB3O)[C@]2(C)[C@H](C)CC[C@]3(CCC(=O)[C@H]32)[C@@H](C)[C@@H]1O [Compound 100, (3aR,4R,5R,7S,8S,9R,9aS,12R)-8-hydroxy-4,7,9,12-tetramethyl-3-oxo-7-vinyldecahydro-4,9a-propanocyclopenta[8]annulen-5-yl 2-((1-hydroxy-1,3-dihydro-[1,2]oxaborolo[4,3-c]pyridin-6-yl)oxy)acetate] | > 64 µg/mL |  | > 1000 nM |  |  | 

The next lines start with results.

MIC [1, 4] | MIC [2, 5] | EC50 [3, 6] | SMILES | MIC [1] | MIC ([2]; ATCC49619, read-out: MIC Streptococcus pneumoniae (ATCC 49619)) | EC50 ([3]; C6/36, […])
< 0.25 µg/mL | 0.5 to 2 µg/mL | 81 nM | C=C[C@]1(C)C[C@@H](OC(=O)COc2cc(CN(C)C)c3c(c2)B(O)OC3)[C@]2(C)[C@H](C)CC[C@]3(CCC(=O)[C@H]32)[C@@H](C)[C@@H]1O.Cl [Compound 13, (3aR,4R,5R,7S,8S,9R,9aS,12R)-8-hydroxy-4,7,9,12-tetramethyl-3-oxo-7-vinyldecahydro-4,9a-propanocyclopenta[8]annulen-5-yl 2-((4-((dimethylamino)methyl)-1-hydroxy-1,3-dihydrobenzo[c][1,2]oxaborol-6-yl)oxy)acetate Hydrochloride] |  |  | 
0.5 to 2 µg/mL (≈ 0.721 to 2.88 µM) | < 0.25 µg/mL | 623 nM | C=C[C@]1(C)C[C@@H](OC(=O)COc2cc3c(c(C4CCN(C(=O)OC(C)(C)C)CC4)c2)COB3O)[C@]2(C)[C@H](C)CC[C@]3(CCC(=O)[C@H]32)[C@@H](C)[C@@H]1O [Compound 17, tert-butyl 4-(1-hydroxy-6-(2-(((3aR,4R,5R,7S,8S,9R,9aS,12R)-8-hydroxy-4,7,9,12-tetramethyl-3-oxo-7-vinyldecahydro-4,9a-propanocyclopenta[8]annulen-5-yl)oxy)-2-oxoethoxy)-1,3-dihydrobenzo[c][1,2]oxaborol-4-yl)piperidine-1-carboxylate] |  |  | 
0.5 to 2 µg/mL (≈ 0.842 to 3.37 µM) |  | > 1000 nM | C=C[C@]1(C)C[C@@H](OC(=O)COc2cc3c(c(C4CCNCC4)c2)COB3O)[C@]2(C)[C@H](C)CC[C@]3(CCC(=O)[C@H]32)[C@@H](C)[C@@H]1O [Compound 18, (3aR,4R,5R,7S,8S,9R,9aS,12R)-8-hydroxy-4,7,9,12-tetramethyl-3-oxo-7-vinyldecahydro-4,9a-propanocyclopenta[8]annulen-5-yl 2-((1-hydroxy-4-(piperidin-4-yl)-1,3-dihydrobenzo[c][1,2]oxaborol-6-yl)oxy)acetate] |  |  | 
0.5 to 2 µg/mL (≈ 0.86 to 3.44 µM) | 0.5 to 2 µg/mL (≈ 0.86 to 3.44 µM) | > 1000 nM | C=C[C@]1(C)C[C@@H](OC(=O)COc2ccc3c(c2)B(O)OC3CNC(C)=O)[C@]2(C)[C@H](C)CC[C@]3(CCC(=O)[C@H]32)[C@@H](C)[C@@H]1O (stereo partly drawn) [Compound 22, (3aR,4R,5R,7S,8S,9R,9aS,12R)-8-hydroxy-4,7,9,12-tetramethyl-3-oxo-7-vinyldecahydro-4,9a-propanocyclopenta[8]annulen-5-yl 2-((3-(acetamidomethyl)-1-hydroxy-1,3-dihydrobenzo[c][1,2]oxaborol-6-yl)oxy)acetate] |  |  | 
< 0.25 µg/mL | 0.5 to 2 µg/mL (≈ 0.801 to 3.2 µM) | > 1000 nM | C=C[C@]1(C)C[C@@H](OC(=O)COc2ccc3c(c2)B(O)OC3CC(=O)OC(C)(C)C)[C@]2(C)[C@H](C)CC[C@]3(CCC(=O)[C@H]32)[C@@H](C)[C@@H]1O (stereo partly drawn) [Compound 24, tert-Butyl 2-(1-hydroxy-6-(2-(((3aR,4R,5R,7S,8S,9R,9aS,12R)-8-hydroxy-4,7,9,12-tetramethyl-3-oxo-7-vinyldecahydro-4,9a-propanocyclopenta[8]annulen-5-yl)oxy)-2-oxoethoxy)-1,3-dihydrobenzo[c][1,2]oxaborol-3-yl)acetate] |  |  | 
< 0.25 µg/mL | 0.5 to 2 µg/mL (≈ 0.858 to 3.43 µM) | > 1000 nM | C=C[C@]1(C)C[C@@H](OC(=O)COc2ccc3c(c2)B(O)OC3CC(=O)OC)[C@]2(C)[C@H](C)CC[C@]3(CCC(=O)[C@H]32)[C@@H](C)[C@@H]1O (stereo partly drawn) [Compound 26, (3aR,4R,5R,7S,8S,9R,9aS,12R)-8-hydroxy-4,7,9,12-tetramethyl-3-oxo-7-vinyldecahydro-4,9a-propanocyclopenta[8]annulen-5-yl 2-((1-hydroxy-3-(2-methoxy-2-oxoethyl)-1,3-dihydrobenzo[c][1,2]oxaborol-6-yl)oxy)acetate] |  |  | 
< 0.25 µg/mL | < 0.25 µg/mL | 27 nM | C=C[C@]1(C)C[C@@H](OC(=O)COc2ccc3c(c2)B(O)OC3CN(C)C)[C@]2(C)[C@H](C)CC[C@]3(CCC(=O)[C@H]32)[C@@H](C)[C@@H]1O (stereo partly drawn) [Compound 27, (3aR,4R,5R,7S,8S,9R,9aS,12R)-8-hydroxy-4,7,9,12-tetramethyl-3-oxo-7-vinyldecahydro-4,9a-propanocyclopenta[8]annulen-5-yl 2-((3-((dimethylamino)methyl)-1-hydroxy-1,3-dihydrobenzo[c][1,2]oxaborol-6-yl)oxy)acetate] |  |  | 
